Test results published in PMC7006784, “The combination of salvianolic acid A with latamoxef completely protects mice against lethal pneumonia caused by methicillin-resistant Staphylococcus aureus” (Emerging Microbes & Infections, 2020).

Tests used:
S. aureus USA300 [1] = test: Pneumonia model, survival; assay type: in vivo, C57BL/6J mice; settings: mice, 2 × 10^9 CFU i.n.; s.c. 100 mg/kg Sal A and/or 75 mg/kg latamoxef every 12 h, 96 h; PBS control 10%
Protocol: The animal experiments were performed using 6- to 8-week-old female C57BL/6J mice obtained from the Experimental Animal Center of Jilin University and conducted according to the guidelines of the Animal Care and Use Committee of Jilin University. The mouse S. aureus pneumonia model was generated as described previously. Briefly, the mice were anaesthetized with ether and inoculated with 30 μl bacterial resuspension via the left nare. The mice were then held upright to allow the bacteria to be inhaled into the lungs. For the survival assessment, groups of 10 mice were challenged with 2 × 10^9 CFU S. aureus. One hour after intranasal inoculation, the mice were subcutaneously injected with 100 mg/kg of Sal A, 75 mg/kg of latamoxef or 100 mg/kg of Sal A plus 75 mg/kg of latamoxef at 12 h intervals, and survival was assessed for 96 h. For the bacterial load, histopathological, and bronchoalveolar lavage fluid (BALF) experiments, mice were inoculated with 1 × 10^9 CFU S. aureus. The mice were then given a subcutaneous injection of 100 mg/kg Sal A, 75 mg/kg latamoxef or a combination of 100 mg/kg Sal A and 75 mg/kg every 12 h. After 24 h, the left lung of each anaesthetized mouse was aseptically excised and homogenized, and the CFU was determined by serial dilutions. […]

S. aureus USA300 [2] = test: Pneumonia model, bacterial load and histopathology of the lungs; assay type: in vivo, C57BL/6J mice; settings: mice, 1 × 10^9 CFU i.n., 24 h
Protocol: The animal experiments were performed using 6- to 8-week-old female C57BL/6J mice obtained from the Experimental Animal Center of Jilin University and conducted according to the guidelines of the Animal Care and Use Committee of Jilin University. The mouse S. aureus pneumonia model was generated as described previously. Briefly, the mice were anaesthetized with ether and inoculated with 30 μl bacterial resuspension via the left nare. The mice were then held upright to allow the bacteria to be inhaled into the lungs. For the survival assessment, groups of 10 mice were challenged with 2 × 10^9 CFU S. aureus. One hour after intranasal inoculation, the mice were subcutaneously injected with 100 mg/kg of Sal A, 75 mg/kg of latamoxef or 100 mg/kg of Sal A plus 75 mg/kg of latamoxef at 12 h intervals, and survival was assessed for 96 h. For the bacterial load, histopathological, and bronchoalveolar lavage fluid (BALF) experiments, mice were inoculated with 1 × 10^9 CFU S. aureus. The mice were then given a subcutaneous injection of 100 mg/kg Sal A, 75 mg/kg latamoxef or a combination of 100 mg/kg Sal A and 75 mg/kg every 12 h. After 24 h, the left lung of each anaesthetized mouse was aseptically excised and homogenized, and the CFU was determined by serial dilutions. The right lungs from each group of mice were excised for histopathological analysis, and the samples were fixed in 10% formalin and stained with haematoxylin and eosin (H&E).

## CO[C@@]1(NC(=O)C(C(=O)O)c2ccc(O)cc2)C(=O)N2C(C(=O)O)=C(CSc3nnnn3C)CO[C@@H]21 (stereo partly drawn) [latamoxef]
S. aureus USA300 [1]
  survival rate: 50%
S. aureus USA300 [2]; s.c. 100 mg/kg Sal A and/or 75 mg/kg latamoxef every 12 h
  viable MRSA loads in the lungs in comparison with the control: significantly decreased
S. aureus USA300 [2]; s.c. 100 mg/kg Sal A and/or 75 mg/kg latamoxef, H&E
  pulmonary inflammation (histopathology of the lungs): alleviated
